This note sets out measurements from paper PMC4015918, “Conjugation to a SMAC mimetic potentiates sigma-2 ligand induced tumor cell death in ovarian cancer” (Molecular Cancer, 2014).

SMILES strings stand for the structures.

What all share (format): cell-based
In assay [1] the target is T1, XIAP (Homo sapiens, UniProt P98170).
T1 construct: endogenous in cells; host or cells: SKOV3
The experiment in a line: Western blot for XIAP levels. The settings on record: SKOV3 cells, 10 μM, 4 hours. As to the method: Figure 4 SW IV-134 engages in SMAC-dependent pathway activation. (A) SKOV3 cells were treated with vehicle only (Ctrl.), SW43 (10 μM), and SW IV-134 (10 μM) for 4 hours and cell lysates were subjected to Western blot analysis using antibodies against XIAP, cIAP-1, cIAP-2, NF-қB and NIK. While XIAP seems unaffected under the conditions used, cIAP-1 and cIAP-2 proteins are readily undetectable shortly post treatment. SW IV-134 treatment also leads to accumulation of NF-қB inducing kinase (NIK) and activation of NF-қB pathway. (B) SKOV3 cells were treated with SW IV-134 at the indicated doses either alone or in the presence of proteasome inhibitor MG132 (20 μM) for 18 hours. […] Cell viability was determined as described in the experimental methods (p < 0.011, Student’s t-test).
(§1) Cells were lysed in radioimmunoprecipitation assay buffer [50 mM Tris, 150 mM sodium chloride, 1.0 mM EDTA, 1% Nonidet P40, and 0.25% SDS (pH 7.0)], supplemented with complete protease inhibitor cocktail (Roche, Mannheim) and phosphatase inhibitor cocktail 1 (Sigma Chemical Co., St. Louis, MO). The protein concentration was determined using a BioRad Dc protein assay kit (Bio-Rad Laboratories, Hercules, CA). Lysates containing 30 μg of protein were run on a 12% polyacrylamide gel and transferred to a PVDF membrane (Bio-Rad Laboratories, Hercules, CA). […]
(In western blotting, separated proteins are transferred to a membrane and probed.)

Assay [2] concerns caspase 3, caspase 8, and caspase 9. The experiment in a line: Western blot for precursors and activated forms of caspases 8, 9 and 3. The settings on record: 10 μM, 24 hours, different ovarian cancer cell lines. As to the method:
Figure 3 Treatment with SW IV-134 results in caspase-mediated cell death. (A) Cells were treated with vehicle only (Ctrl.), SW43 (10 μM), and SW IV-134 (10 μM) for 24 hours. Cell lysates were subjected to Western blot analysis, and probed with antibodies specific for the precursors and activated forms of caspases 8, 9, and 3. (B) SKOV3 cells were treated with SW IV-134 at indicated doses either alone or in the presence of the pan-caspase inhibitor Z-VAD-FMK (20 μM) for 18 hours. Cell viability was determined by CellTiter-Glo assays (p < 0.018, Student’s t-test).
as §1

In assay [3] the test system is TNFα mRNA. The experiment in a line: Quantitative RT-PCR of TNFα mRNA. The settings on record: SKOV3 cells, 1 μM and 3 μM, 4-24 hours, normalized to GAPDH; maximal at 24 hours. As for the experimental part: Figure 5 SW IV-134 induces activation of the TNFα-dependent extrinsic death pathway. (A) Quantitative real-time PCR analysis of TNFα mRNA expression was done on RNA samples derived from SKOV3 cells treated with SW IV-134 (1 μM and 3 μM) for indicated time periods. All values were normalized to a GAPDH internal control (p < 0.0001, one-way ANOVA). (B) SKOV3 cells were treated with SW IV-134 (1 μM and 3 μM) and cell-culture supernatants were collected at 4, 12, and 24 hours after treatment, and subsequently examined by anti-TNFα ELISA according to manufacturer’s instructions (p < 0.0001, one-way ANOVA). (C) SKOV3 cells were treated with SW IV-134 at indicated doses either alone or in the presence of anti-TNFα blocking antibody for 18 hours. Cell viability was determined as described in the experimental methods (p < 0.019, Student’s t-test).
SKOV3 cells were treated with SW IV-134 (1 μM, 3 μM) or vehicle-control for 4 hours, 12 hours, and 24 hours. At the end of each treatment, cells were harvested and total RNA was isolated using TRIzol reagent (Invitrogen, Grand Island, NY) and RT-PCR performed as per the protocol described before. Briefly, one microgram of RNA from each sample was reverse transcribed to cDNA with Retroscript (Ambion, Austin, TX). […] TNFα data were normalized for expression with GAPDH, and results were expressed as fold change over untreated controls.

Assay [4] relates to Hey A8 cells. The experiment in a line: Caspase-Glo caspase 3, 8 and 9 activity in Hey A8 cells. The settings on record: 24 hours. As to the method:
Caspase 3, 8 and 9 activities were measured using Caspase-Glo® Assay Systems according to the manufacturer’s instructions (Promega, Madison, WI). Briefly, the assay systems are based on caspase-specific substrates, which are activated by cleavage, resulting in caspase specific luminescence signals. HeyA8 cells were plated at a density of 1 × 10^4 in white 96 well, clear bottom plates for 24 hours before treatment. Cells were treated with different concentrations of SW IV-134. Caspase 3, 8 and 9 assays were performed by adding 100 μl of caspase reagents to each well. The contents were mixed using a plate shaker for 30 seconds and incubated at room temperature for 90 minutes. Luminescence signal was measured using a multi-mode microplate reader (BioTek, Winooski, VT).
Supplementary file 1476-4598-13-50-S3.pdf: Additional file 3: Figure S2 SW IV-134 induces caspase activation in ovarian cancer. Caspase 3, 8 and 9 activities were measured in Hey A8 cells using Caspase-Glo® Assay Systems (Promega). Hey A8 cells were treated with SW IV-134 at indicated drug concentrations for 24 hours. Caspase assays were performed by adding 100 μl lysis buffer containing the substrates for the respective caspase to be assayed. Luminescence signal intensities were recorded using a multi-mode microplate reader (BioTek). […] (A) caspase 8; (B) caspase 9; and (C) caspase 3. p < 0.001 for all analyses, one-way ANOVA. […]

T1 sequence (P98170 whole entry): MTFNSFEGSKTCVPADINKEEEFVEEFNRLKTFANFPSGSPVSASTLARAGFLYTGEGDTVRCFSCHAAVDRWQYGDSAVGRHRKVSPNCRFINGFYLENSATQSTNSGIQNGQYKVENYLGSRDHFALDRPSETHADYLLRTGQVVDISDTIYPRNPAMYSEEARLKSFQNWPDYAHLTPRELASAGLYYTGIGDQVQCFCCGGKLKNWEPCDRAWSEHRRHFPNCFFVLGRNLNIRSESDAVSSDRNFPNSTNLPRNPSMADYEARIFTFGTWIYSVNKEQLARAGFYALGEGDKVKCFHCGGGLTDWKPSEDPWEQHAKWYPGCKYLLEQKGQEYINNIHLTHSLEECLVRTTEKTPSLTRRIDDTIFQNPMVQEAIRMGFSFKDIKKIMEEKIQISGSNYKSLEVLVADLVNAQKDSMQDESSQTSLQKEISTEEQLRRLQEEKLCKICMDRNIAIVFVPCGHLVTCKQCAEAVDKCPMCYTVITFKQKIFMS

Consider `COc1ccc(C)cc1NC(=O)OC1CC2CCCC(C1)N2CCCCCCCCCCN[C@@H](C)C(=O)N[C@H](C(=O)N1CCC[C@H]1C(=O)N[C@@H]1CCCc2ccccc21)C(C)(C)C` (stereo partly shown) [SW IV-134], for which the XIAP levels entry in assay [1] was “without affecting the XIAP levels”. The “Activation of caspase 3, caspase 8, and caspase 9” value in assay [2] is “induced”. Moreover, in assay [3], the “Increase in TNFα mRNA levels compared to untreated cells” value is 20-50 fold. Moreover, the “Caspase 3, 8 and 9 activities (fold over DMSO control)” value in assay [4] is recorded as “significant increases in caspase activities”.
